Measurements from patent publication US4920231A, “Process of braking triflouromethyl compounds” (Roussel Uclaf, priority 1988, dated 1990).
≈ marks a conversion by molar mass, not a printed value.

Assays:
Type in all cases: in vivo
[1] = system: Boophilus microplus larvae; experiment: Study of the activity on Boophilus microplus larvae (spraying tower, % mortality); conditions: for activity on Boophilus microplus larvae (conclusion): 100, 10 and 1 ppm; for mortality at 1 ppm / mortality at 10 ppm / mortality at 100 ppm: Rhipicephalus microplus, in Bos taurus, larvae, after 24 hours
Method: C. Study of the acaricide activity in animals
(a) Study of the activity on Boophilus microplus larvae
(§1) The substance under test was dissolved in a mixture of dimethylformamide, emulsifiers and Arcopal so as to obtain a concentrate emulsifying at 10%. This concentrate was diluted with water to obtain solutions of the desired concentrations of 100, 10 and 1 ppm. Using a spraying tower, the various solutions were sprayed over the larvae of tropical cattle ticks of Boophilus microplus type, and after 24 hours, the percentage of mortality was determined by counting the living and dead larvae.

[2] = system: Aphis cracivora; experiment: Study of the lethal effect on Aphis cracivora (contact-injection method, treated broad-bean leaf); conditions: 7-day old adults, contact with treated leaf for one hour, mortality after 24 hours
Method: B. Study of the lethal effect on Aphis cracivora
7-day old adults were used and 10 aphids per concentration used were employed. A contact-injection method was used and the treatment of a broad-bean leaf was carried out with a Fisher gun, the leaf being placed in a plastic Petri dish on a circle of damp paper. The treatment was carried out with 2 ml of acetone solution of the product under test (1 ml per side of leaf). The infestation by the insects was brought about after drying the leaf and the insects were kept in contact with the leaf for one hour. Insects were placed on untreated leaves and the mortality was checked after 24 hours.

[3] = system: house-fly; experiment: Study of lethal activity on the house-fly (topical application); conditions: four-day old female house-flies, topical 1 μl acetone solution on dorsal thorax, mortality at 24 hours; without synergist or with piperonyl butoxide (table does not say which)
Method: A. Study of lethal activity on the house-fly
The insects tested were four-day old female house-flies and the test was carried out by topical application of 1 μl of acetone solution on the dorsal thorax of the insects using an Arnold micromanipulator. 50 individuals per treatment were used and a mortality check was carried out 24 hours after treatment. The tests were carried out without a synergist or with the addition of piperonyl butoxide (10 parts of synergist per 1 part of test compound). The experimental results, given in the following table, are expressed in LD 50 (in nanograms) necessary to kill 50% of the insects: […]

[4] = system: Boophilus microplus females; experiment: Study of the activity on inhibition of the reproduction of Boophilus microplus ticks; conditions: for activity on inhibition of reproduction of Boophilus microplus ticks (conclusion): 100 to 0.19 ppm; for inhibition at 0.19 ppm / inhibition at 0.38 ppm / inhibition at 0.75 ppm / inhibition at 1.5 ppm / inhibition at 3.1 ppm / inhibition at 6.2 ppm / inhibition at 12.5 ppm / inhibition at 25 ppm / inhibition at 50 ppm / inhibition at 100 ppm: Rhipicephalus microplus, 5 min, females submerged for 5 minutes
Method: as §1, with “larvae. The results are as follows:” for “larvae.”
(b) Study of the activity on inhibition of the reproduction of Boophilus microplus ticks
Boophilus microplus females, ready to lay eggs, were submerged for 5 minutes in the solutions prepared above and then they were placed in a heated chamber to lay the eggs. […]

Row | Compound | activity on Boophilus microplus larvae (conclusion) [1] | mortality at 1 ppm [1] [%] | mortality at 10 ppm [1] [%] | mortality at 100 ppm [1] [%] | LC50 [2] [µg/mL] | LD 50 [3] [ng/insect] | activity on inhibition of reproduction of Boophilus microplus ticks (conclusion) [4] | inhibition at 0.19 ppm [4] [%] | inhibition at 0.38 ppm [4] [%] | inhibition at 0.75 ppm [4] [%] | inhibition at 1.5 ppm [4] [%] | inhibition at 3.1 ppm [4] [%] | inhibition at 6.2 ppm [4] [%] | inhibition at 12.5 ppm [4] [%] | inhibition at 25 ppm [4] [%] | inhibition at 50 ppm [4] [%] | inhibition at 100 ppm [4] [%]
1 | C[C@@H](OC(=O)[C@@H]1[C@@H](/C=C(/c2ccc(Cl)cc2)C(F)(F)F)C1(C)C)c1cccc(Oc2ccccc2)n1 [Example 3, 1-(6-phenoxy-2-pyridyl)-ethyl [1R-[1α(R*), 3β]]2,2-dimethyl-3-[(ΔZ)-2-(4-chlorophenyl)-3,3,3-trifluoro-1-propenyl]-cyclopropane carboxylate] | remarkable activity | 100 | 100 | 100 | 1.34 (≈ 2.6 µM) | 19.6 | remarkable activity | 100 | 100 | 100 | 100 | 100 | 100 | 100 | 100 | 100 | 100
2 | CC(OC(=O)[C@@H]1[C@@H](/C=C(/c2ccc(Cl)cc2)C(F)(F)F)C1(C)C)c1cccc(Oc2ccccc2)n1 (stereo partly drawn) [Example 5, 1-(6-phenoxy-2-pyridyl)-ethyl [1R-(1α,(RS), 3β]] 2,2-dimethyl-3-[(ΔZ)-2-(4-chlorophenyl)-3,3,3-trifluoro-1-propenyl]-cyclopropane carboxylate] | remarkable activity | 100 | 100 | – | – | – | remarkable activity | – | 85 | 100 | 100 | 100 | 100 | 100 | 100 | 100 | 100
3 | CC1(C)[C@H](/C=C(/c2ccc(Cl)cc2)C(F)(F)F)[C@H]1C(=O)O[C@H](C#N)c1ccc(F)c(Oc2ccccc2)c1 [Example 4, α-Cyano-4-fluoro-3-phenoxy-benzyl [1R-[1α(S*)-3β]-2,2-dimethyl-3-[(ΔZ) 2-(4-chlorophenyl)-3,3,3-trifluoro-1-propenyl]-cyclopropane carboxylate] | remarkable activity | 100 | 100 | 100 | 0.6 (≈ 1.1 µM) | 5.3 | remarkable activity | 100 | 100 | 100 | 100 | 100 | 100 | 100 | 100 | 100 | 100
